System: NCI-H1876 complex spheroid growth, % test/control
Test: Anticancer human tumor NCI-H1876 cell line growth inhibition [Asc];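 note: compound exposure lasted 7 days starting three days after seeding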;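 for viability, T/C: 100% = DMSO vehicle control wells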
Details: for IC50: curve of first compound; for viability, T/C: stronger effect = lower value
Summary of the method: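 Complex solid-tumor spheroids incorporating human endothelial and mesenchymal stem cells received single agents or combinations over half-log dilution ranges anchored to clinical Cmax.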

Q: What does the source list for `C=C(F)C(=O)N1CCN(c2nc(OCC3CCCN3C)nc3c2CCN(c2cccc4cccc(Cl)c24)C3)CC1CC#N` (stereo unspecified) + CNC(C)C(=O)NC1CN(S(=O)(=O)c2cccc(S(=O)(=O)N3CCC4CCC(C(=O)NC(c5ccccc5)c5ccccc5)N4C(=O)C(NC(=O)C(C)NC)C3)c2)CCC2CCC(C(=O)NC(c3ccccc3)c3ccccc3)N2C1=O?
A: IC50 (second compound 0.00316 µM): 5.58 µM; IC50 (second compound 0.01 µM): 5.6 µM; IC50 (second compound 0.0316 µM): 5.59 µM; IC50 (second compound 0.1 µM): 5.66 µM; IC50 (second compound 0.316 µM): 5.73 µM; IC50 (second compound 1 µM): 5.46 µM; viability, T/C (second compound 0.00316 µM, first compound 0.0316 µM): 96.9%; viability, T/C (second compound 0.00316 µM, first compound 0.1 µM): 97.3%; viability, T/C (second compound 0.00316 µM, first compound 0.316 µM): 110%; viability, T/C (second compound 0.00316 µM, first compound 1 µM): 89.3%; viability, T/C (second compound 0.00316 µM, first compound 3.16 µM): 99%; viability, T/C (second compound 0.00316 µM, first compound 10 µM): 0.33%; viability, T/C (second compound 0.01 µM, first compound 0.0316 µM): 104%; viability, T/C (second compound 0.01 µM, first compound 0.1 µM): 96.2%; viability, T/C (second compound 0.01 µM, first compound 0.316 µM): 103%; viability, T/C (second compound 0.01 µM, first compound 1 µM): 103%; viability, T/C (second compound 0.01 µM, first compound 3.16 µM): 98.4%; viability, T/C (second compound 0.01 µM, first compound 10 µM): 1.04%; viability, T/C (second compound 0.0316 µM, first compound 0.0316 µM): 106%; viability, T/C (second compound 0.0316 µM, first compound 0.1 µM): 91.5%; viability, T/C (second compound 0.0316 µM, first compound 0.316 µM): 98.2%; viability, T/C (second compound 0.0316 µM, first compound 1 µM): 95.2%; viability, T/C (second compound 0.0316 µM, first compound 3.16 µM): 103%; viability, T/C (second compound 0.0316 µM, first compound 10 µM): 0.33%; viability, T/C (second compound 0.1 µM, first compound 0.0316 µM): 98.2%; viability, T/C (second compound 0.1 µM, first compound 0.1 µM): 95.4%; viability, T/C (second compound 0.1 µM, first compound 0.316 µM): 102%; viability, T/C (second compound 0.1 µM, first compound 1 µM): 115%; viability, T/C (second compound 0.1 µM, first compound 3.16 µM): 100%; viability, T/C (second compound 0.1 µM, first compound 10 µM): 0.52%; viability, T/C (second compound 0.316 µM, first compound 0.0316 µM): 106%; viability, T/C (second compound 0.316 µM, first compound 0.1 µM): 98.7%; viability, T/C (second compound 0.316 µM, first compound 0.316 µM): 107%; viability, T/C (second compound 0.316 µM, first compound 1 µM): 96.3%; viability, T/C (second compound 0.316 µM, first compound 3.16 µM): 108%; viability, T/C (second compound 0.316 µM, first compound 10 µM): 0.32%; viability, T/C (second compound 1 µM, first compound 0.0316 µM): 96.2%; viability, T/C (second compound 1 µM, first compound 0.1 µM): 85.5%; viability, T/C (second compound 1 µM, first compound 0.316 µM): 92.1%; viability, T/C (second compound 1 µM, first compound 1 µM): 102%; viability, T/C (second compound 1 µM, first compound 3.16 µM): 97.2%; viability, T/C (second compound 1 µM, first compound 10 µM): 0.37%

Q: What does the source list for `Cc1nc(N2CCC3(CC2)COC(C)C3N)c(CO)nc1Sc1ccnc(N)c1Cl` (stereo unspecified) + CNC(C)C(=O)NC1CN(S(=O)(=O)c2cccc(S(=O)(=O)N3CCC4CCC(C(=O)NC(c5ccccc5)c5ccccc5)N4C(=O)C(NC(=O)C(C)NC)C3)c2)CCC2CCC(C(=O)NC(c3ccccc3)c3ccccc3)N2C1=O?
A: IC50 (second compound 0.00316 µM): > 3 µM; IC50 (second compound 0.01 µM): > 3 µM; IC50 (second compound 0.0316 µM): > 3 µM; IC50 (second compound 0.1 µM): > 3 µM; IC50 (second compound 0.316 µM): > 3 µM; IC50 (second compound 1 µM): > 3 µM; viability, T/C (second compound 0.00316 µM, first compound 0.00949 µM): 100%; viability, T/C (second compound 0.00316 µM, first compound 0.03 µM): 92.7%; viability, T/C (second compound 0.00316 µM, first compound 0.0949 µM): 91.2%; viability, T/C (second compound 0.00316 µM, first compound 0.3 µM): 80.7%; viability, T/C (second compound 0.00316 µM, first compound 0.949 µM): 92.6%; viability, T/C (second compound 0.00316 µM, first compound 3 µM): 79.8%; viability, T/C (second compound 0.01 µM, first compound 0.00949 µM): 91.7%; viability, T/C (second compound 0.01 µM, first compound 0.03 µM): 91.9%; viability, T/C (second compound 0.01 µM, first compound 0.0949 µM): 92.7%; viability, T/C (second compound 0.01 µM, first compound 0.3 µM): 81.2%; viability, T/C (second compound 0.01 µM, first compound 0.949 µM): 85.7%; viability, T/C (second compound 0.01 µM, first compound 3 µM): 92.1%; viability, T/C (second compound 0.0316 µM, first compound 0.00949 µM): 94.4%; viability, T/C (second compound 0.0316 µM, first compound 0.03 µM): 86.1%; viability, T/C (second compound 0.0316 µM, first compound 0.0949 µM): 98.8%; viability, T/C (second compound 0.0316 µM, first compound 0.3 µM): 84.8%; viability, T/C (second compound 0.0316 µM, first compound 0.949 µM): 87.6%; viability, T/C (second compound 0.0316 µM, first compound 3 µM): 89%; viability, T/C (second compound 0.1 µM, first compound 0.00949 µM): 93.9%; viability, T/C (second compound 0.1 µM, first compound 0.03 µM): 88.4%; viability, T/C (second compound 0.1 µM, first compound 0.0949 µM): 82.9%; viability, T/C (second compound 0.1 µM, first compound 0.3 µM): 86.5%; viability, T/C (second compound 0.1 µM, first compound 0.949 µM): 86.4%; viability, T/C (second compound 0.1 µM, first compound 3 µM): 84.3%; viability, T/C (second compound 0.316 µM, first compound 0.00949 µM): 94%; viability, T/C (second compound 0.316 µM, first compound 0.03 µM): 93.8%; viability, T/C (second compound 0.316 µM, first compound 0.0949 µM): 87.9%; viability, T/C (second compound 0.316 µM, first compound 0.3 µM): 92.7%; viability, T/C (second compound 0.316 µM, first compound 0.949 µM): 85.9%; viability, T/C (second compound 0.316 µM, first compound 3 µM): 77.2%; viability, T/C (second compound 1 µM, first compound 0.00949 µM): 94%; viability, T/C (second compound 1 µM, first compound 0.03 µM): 91.8%; viability, T/C (second compound 1 µM, first compound 0.0949 µM): 94.4%; viability, T/C (second compound 1 µM, first compound 0.3 µM): 90.5%; viability, T/C (second compound 1 µM, first compound 0.949 µM): 84.5%; viability, T/C (second compound 1 µM, first compound 3 µM): 74.8%

Q: What does the source list for `C=CC(=O)N1CCN(c2nc(=O)n(-c3c(C)ccnc3C(C)C)c3nc(-c4c(O)cccc4F)c(F)cc23)C(C)C1` (stereo unspecified) + CCN1C(C(=O)NC23CCC(C(=O)O)(CC2)CC3)C(c2cccc(Cl)c2F)C2(C(=O)Nc3cc(Cl)ccc32)C12CCCCC2?
A: IC50 (second compound 0.00949 µM): > 10 µM; IC50 (second compound 0.03 µM): > 10 µM; IC50 (second compound 0.0949 µM): > 10 µM; IC50 (second compound 0.3 µM): > 10 µM; IC50 (second compound 0.949 µM): > 10 µM; IC50 (second compound 3 µM): > 10 µM; viability, T/C (second compound 0.00949 µM, first compound 0.0316 µM): 93.5%; viability, T/C (second compound 0.00949 µM, first compound 0.1 µM): 90.4%; viability, T/C (second compound 0.00949 µM, first compound 0.316 µM): 101%; viability, T/C (second compound 0.00949 µM, first compound 1 µM): 108%; viability, T/C (second compound 0.00949 µM, first compound 3.16 µM): 118%; viability, T/C (second compound 0.00949 µM, first compound 10 µM): 106%; viability, T/C (second compound 0.03 µM, first compound 0.0316 µM): 98.2%; viability, T/C (second compound 0.03 µM, first compound 0.1 µM): 101%; viability, T/C (second compound 0.03 µM, first compound 0.316 µM): 104%; viability, T/C (second compound 0.03 µM, first compound 1 µM): 103%; viability, T/C (second compound 0.03 µM, first compound 3.16 µM): 110%; viability, T/C (second compound 0.03 µM, first compound 10 µM): 107%; viability, T/C (second compound 0.0949 µM, first compound 0.0316 µM): 96.8%; viability, T/C (second compound 0.0949 µM, first compound 0.1 µM): 93.4%; viability, T/C (second compound 0.0949 µM, first compound 0.316 µM): 107%; viability, T/C (second compound 0.0949 µM, first compound 1 µM): 106%; viability, T/C (second compound 0.0949 µM, first compound 3.16 µM): 117%; viability, T/C (second compound 0.0949 µM, first compound 10 µM): 107%; viability, T/C (second compound 0.3 µM, first compound 0.0316 µM): 103%; viability, T/C (second compound 0.3 µM, first compound 0.1 µM): 106%; viability, T/C (second compound 0.3 µM, first compound 0.316 µM): 115%; viability, T/C (second compound 0.3 µM, first compound 1 µM): 114%; viability, T/C (second compound 0.3 µM, first compound 3.16 µM): 114%; viability, T/C (second compound 0.3 µM, first compound 10 µM): 109%; viability, T/C (second compound 0.949 µM, first compound 0.0316 µM): 118%; viability, T/C (second compound 0.949 µM, first compound 0.1 µM): 115%; viability, T/C (second compound 0.949 µM, first compound 0.316 µM): 104%; viability, T/C (second compound 0.949 µM, first compound 1 µM): 114%; viability, T/C (second compound 0.949 µM, first compound 3.16 µM): 118%; viability, T/C (second compound 0.949 µM, first compound 10 µM): 112%; viability, T/C (second compound 3 µM, first compound 0.0316 µM): 112%; viability, T/C (second compound 3 µM, first compound 0.1 µM): 99.6%; viability, T/C (second compound 3 µM, first compound 0.316 µM): 96.7%; viability, T/C (second compound 3 µM, first compound 1 µM): 109%; viability, T/C (second compound 3 µM, first compound 3.16 µM): 114%; viability, T/C (second compound 3 µM, first compound 10 µM): 107%
